# According to patent publication US4006232A, “Therapeutic method of treating cardiac arrhythmias utilizing 3-substituted diphenylhydantoins” (Miles Laboratories, Inc., priority 1974, dated 1977):
# Structures can show the parent of a compound that is named as a salt. Where two headings read alike, the source gives them in different places.
# Key:
# [1] = extent of activity of DPH; cited from earlier work
# [2] = system: ventricular rate and rhythm; assay: Antiarrhythmic activity: protection against chloroform-induced ventricular arrhythmia in mice (Lawson); format: in vivo; settings: Mus musculus, ip, 10 min; intraperitoneal, 10 min before chloroform; protected = ventricular rate not exceeding 100 contractions in 30 s; groups of 5 mice; parentheses = 95% confidence limits; read-out: ED50 (95% CL)
# Method: The antiarrhythmic activity of the compounds of this invention, specifically those enumerated in the Summary and presented as the above examples, was compared to that of diphenylhydantoin (I), 3-(3-diethylaminopropyl)- 5,5-diphenylhydantoin (II), 3-[3-(1-piperidyl)-propyl]- 5,5-diphenylhydantoin (III), and 3-(3-morpholinopropyl)-5,5-diphenylhydantoin (IV).
# (§1) The tests compounds were administered to groups consisting of 5 mice in varying intraperitoneal doses. Ten minutes after administration of a given dose of a compound, a mouse was transferred to a covered 300 ml glass beaker which contained a wad of cotton saturated with about 20 ml of chloroform. The animal was observed closely and removed from the beaker immediately after respiratory arrest. The heart was quickly exposed by making an incision through the abdomen, diaphragm, thorax and pericardium for visual inspection of ventricular rate and rhythm. Ventricular contractions were counted for 30 seconds. According to the procedure reported by Lawson (J. Pharmacol. Exp. Therap., 160:22 [1968]), animals with a ventricular rate not exceeding 100 contractions during the 30 second observation period were considered protected. Results obtained with each dose were used to calculate the mean effective doses (ED50) after the method of Litchfield and Wilcoxon (J. Pharmacol. Exp. Therap. 96: 99-113 [ 1949]).
# In Table A, the compounds of this invention are listed by the arabic numeral assigned in the Summary and the above corresponding Example Number; the Roman numerals refer to the compounds so designated above in this Example and in the Description of the Prior Art.
# [3] = in vivo; format: in vivo; settings: intraperitoneal; for MLD (Minimum Lethal Dose): deaths before exposure to chloroform; for selectivity ratio: mouse, in vivo, ip, calculated with Minimum Lethal Dose data, read-out: MLD/ED50 (Therapeutic Index)
# Method: as §1
# [4] = system: Guinea pig atria; assay: Refractory period in isolated atria, electrical stimulation (Dawes); settings: Cavia porcellus, read-out: EC50 (amount necessary for increasing the minimum interval by 50 percent over control values)
# Method: The effect of the compounds of this invention on the refractory period in the atrium was studied and compared to that hydantoin according to the procedure described by Dawes (Brit. J. Pharmacol., 1: 90, [1946]).
# Guinea pig atria, suspended in an isolated organ chamber, were stimulated electrically at increasing frequencies while the resulting mechanical contractions were recorded. The minimum interval between two consecutive stimuli necessary for eliciting a mechanical response was determined before and after incubation with varying concentrations of the test compounds. The minimum interval thus determined is an indirect measure of the refractory period in the tissue, and a prolongation of this interval indicates an increased refractory period. From the increase in minimum interval observed with each concentration, the amount necessary for increasing the interval by 50 percent over control values (EC50) was determined for each compound.
# [5] = system: heart; settings: prior art; cited from earlier work
# [6] = prior art, cited from earlier work
# [7] = guinea pig atria, electrical stimulation, indirect measure of refractory period
Structure (SMILES),ED50 [2] [mg/kg],MLD (Minimum Lethal Dose) [3] [mg/kg],selectivity ratio [3],"EC50 [4, 7] [µg/mL]",also measured
Nc1ccc(C2(c3ccccc3)NC(=O)NC2=O)cc1 (centres unmarked) [5-(4-aminophenyl)-5-phenylhydantoin],–,–,–,–,activity relative to DPH [1]: 50%
"O=C(O)/C=C\C(=O)O.O=C1NC(c2ccccc2)(c2ccccc2)C(=O)N1CCCN1CCN(c2ccccc2)CC1 [Compound 1, 3-[3-(4-phenyl-1-piperazinyl)propyl]-5,5-diphenylhydantoin maleate]",16.4,> 160,> 9.77,4.4,–
"O=C1NC(c2ccccc2)(c2ccccc2)C(=O)N1CCCN1CCC(c2ccccc2)CC1 [Compound 2, 3-[3-(4-phenyl-1-piperidyl)propyl]-5,5-diphenylhydantoin]",13.5,320,23.7,1.1,–
"O=C1NC(c2ccccc2)(c2ccccc2)C(=O)N1CCN1CC=C(c2ccccc2)CC1 [Compound 4, 5,5-diphenyl-3-[2-(4-phenyl-1,2,3,6-tetrahydropyridyl)ethyl]hydantoin hydrochloride]",96,> 178,> 1.85,–,EC50 [4]: 5.7 µg/mL
"Cl.O=C1NC(c2ccccc2)(c2ccccc2)C(=O)N1CCCN1CCC(O)(c2ccccc2)CC1 [Compound 5, 5,5-diphenyl-3-[3-(4-hydroxy-4-phenyl-1-piperidyl)propyl]hydantoin hydrochloride]",5.8,31,5.35,–,EC50 [4]: > 10 µg/mL
"CC(C)(C)NCC(O)CN1C(=O)NC(c2ccccc2)(c2ccccc2)C1=O.Cl (centres unmarked) [Compound 6, 3-(3-t-butylamino-2-hydroxypropyl)-5,5-diphenylhydantoin hydrochloride]",9.4,100,10.6,1.5,–
"Cl.O=C1NC(c2ccc(Cl)cc2)(c2ccc(Cl)cc2)C(=O)N1CCCN1CCC(c2ccccc2)CC1 [Compound 8, 3-[3-(4-phenyl-1-piperidyl)propyl]-5,5-di(4-chlorophenyl)hydantoin hydrochloride]",75,> 178,> 2.28,> 10,–
"COc1ccc(C2(c3ccc(OC)cc3)NC(=O)N(CCCN3CCC(c4ccccc4)CC3)C2=O)cc1.Cl [Compound 10, 3-[3-(4-phenyl-1-piperidyl)propyl]-5,5-di(4-methoxyphenyl)hydantoin hydrochloride]",34,> 178,> 5.24,6.4,–
"Cl.O=C1NC(c2ccccc2)(c2ccc(Br)cc2)C(=O)N1CCCN1CCC(c2ccccc2)CC1 (centres unmarked) [Compound 11, 3-[3-(4-phenyl-1-piperidyl)propyl]-5-(4-bromophenyl)-5-phenylhydantoin hydrochloride]",33.5,> 100,> 2.98,4,–
"Cc1ccc(C2(c3ccccc3)NC(=O)N(CCCN3CCC(c4ccccc4)CC3)C2=O)cc1.O=C(O)/C=C\C(=O)O (centres unmarked) [Compound 12, 3-[3-(4-phenyl-1-piperidyl)propyl]-5-phenyl-5-(4-tolyl)hydantoin maleate]",19.5,> 100,> 5.13,4.8,–
"Cc1ccc(C2(c3ccc(C)cc3)NC(=O)N(CCCN3CCC(c4ccccc4)CC3)C2=O)cc1 [Compound 13, 3-[3-(4-phenyl-1-piperidyl)propyl]-5,5-di(4-tolyl)hydantoin]",4.5,> 100,> 22.2,> 10,–
"O=C1NC(c2ccccc2)(c2ccc([N+](=O)[O-])cc2)C(=O)N1CCCN1CCC(c2ccccc2)CC1 (centres unmarked) [Compound 14, 3-[3-(4-phenyl-1-piperidyl)propyl]-5-(4-nitrophenyl)-5-phenylhydantoin]",10.5,> 100,> 9.52,8.3,–
"Nc1ccc(C2(c3ccccc3)NC(=O)N(CCCN3CCC(c4ccccc4)CC3)C2=O)cc1 (centres unmarked) [Compound 15, 3-[3-(4-phenyl-1-piperidyl)propyl]-5-(4-aminophenyl)-5-phenylhydantoin]",3.4,> 100,> 29.4,3.7,–
"Cc1ccc(C2(c3ccc(C)cc3)NC(=O)N(CCCN3CCC(O)(c4ccccc4)CC3)C2=O)cc1 [Compound 18, 3-[3-(4-hydroxy-4-phenyl-1-piperidyl)propyl]-5,5-di-(4-tolyl)hydantoin]",24,> 100,> 4.17,–,EC50 [4]: 1.9 µg/mL
"O=C1NC(=O)C(c2ccccc2)(c2ccccc2)N1 [I, 5,5-diphenyl-2,4-imidazolidinedione]",394,1000,–,20,"action on ventricular arrhythmias induced by digitalis [5]: antagonize ventricular arrhythmias induced by digitalis; atrio-ventricular nodal conduction [5]: enhances atrio-ventricular nodal conduction; effective refractory period [5]: reduces the effective refractory period; ventricular automaticity [5]: depresses ventricular automaticity; side effects of large doses ([6]; large doses): atrio-ventricular blockage, bradycardia, or even cardiac arrest; untoward side effects [6]: dizziness, nausea, emesis, nystigmus, and ataxia"
"CCN(CC)CCCN1C(=O)NC(c2ccccc2)(c2ccccc2)C1=O [II, 3-(3-diethylaminopropyl)-5,5-diphenylhydantoin, reference compound]",14,56,4,–,–
"O=C1NC(c2ccccc2)(c2ccccc2)C(=O)N1CCCN1CCCCC1 [III, 3-[3(1-piperidyl)propyl]-5,5-diphenylhydantoin, reference compound]",19,31,1.63,–,–
"O=C1NC(c2ccccc2)(c2ccccc2)C(=O)N1CCCN1CCOCC1 [IV, 3-(3-morpholinopropyl)-5,5-diphenylhydantoin, reference compound]",76,178,2.34,–,–
